Consider one compound from patent publication US20010051181A1, “NOVEL FORMULATIONS FOR THE TRANSDERMAL ADMINISTRATION OF ASIMADOLINE” (priority 1997, published 2001).

This series can be described thus: in vitro skin flux of asimadoline through human cadaver epidermis. The class given is in vitro ADME. To be noted: representative range; depending on the drug form, permeation enhancer, and if an in-line adhesive is present. As to the method: Release of asimadoline from transdermal systems into aqueous medium was measured over 24 hours at 35° C. Each system had its exposed edges masked. The systems were then mounted on a Teflon® holder of a release rate rod using nylon mesh and nickel wire. A known volume of receptor solution (50 mM Na2PO4, pH 5.5) was then placed in a test tube and equilibrated at 35° C. The test tube was placed in a water bath and maintained at 35° C. The Teflon rod with attached system was then reciprocated within the test tube by attaching the rod to a motor which caused constant vertical mixing.
At given time intervals, the entire receptor solution was removed from the test tubes and replaced with an equal volume of fresh receptor solutions previously equilibrated at 35° C. The receptor solutions were stored in capped vials at 4° C. until assayed for asimadoline content by HPLC. From the drug concentration and the volume of the receptor solutions, the area of the system and the time interval, the release rate of the drug from the system was calculated as follows: (drug concentration×volume of receptor)/(area×time)=release rate (μg/cm^2 hr). […]
Transdermal systems set forth in Table 1 were prepared according to Example 1 and used to measure permeation through human cadaver skin. […] Asimadoline permeation through the epidermis was then measured according to the procedure set forth in Example 1. […]

Counter-ions that a name gives are not always drawn.

In the case of `CN(C(=O)C(c1ccccc1)c1ccccc1)[C@H](CN1CC[C@H](O)C1)c1ccccc1` [asimadoline hydrochloride, N-[(aS)-α-[[(3S)-3-Hydroxy-1-pyrrolidinyl]methyl]benzyl]-N-methyl-2,2-diphenylacetamide], the “in vitro skin flux through human skin” value is 0.2-10 mg/cm^2·hr.
